Tested on: hyperglycemic rats
Assay: ERG in hyperglycemic rat diabetic retinopathy model
Assay type: in vivo, SD rats (spontaneously hyperglycemic strain)
From the text: Hyperglycemic Rat Diabetic Retinopathy Model—A spontaneously hyperglycemic strain of SD rats, which developed clinical signs of diabetic retinopathy within 4 weeks of birth were identified and isolated within the Vernon Jansen Animal Research Unit, Faculty of Medical and Health Sciences at the University of Auckland. The identification of these rats presenting with hyperglycemia and microaneurysms provided an opportunity to treat a complex, chronic disease model and assess the treatment effect based upon objective, measurable endpoints, despite lacking precise information on the etiology of the disease. Inbreeding was carried out over three generations and eyes were screened for abnormalities between 4-8 weeks of age. Additional information about these rats is presented as supplementary information. Glucose levels were tested in non-fasting rats (Lee J J, Yi H Y, Yang J W, Shin J S, Kwon J H, Kim C W. Characterization of streptozotocin-induced diabetic rats and pharmacodynamics of insulin formulations. Biosci Biotechnol Biochem. 2003; 67:2396-401) using a Freestyle Optium Glucometer (Abbott Laboratories Ltd., UK) and Freestyle Optium glucose strips.
Ten rats per group were the selected (10 normal SD and 10 hyperglycemic) grown to 5 weeks of age and assessed using OCT and ERG. The hyperglycemic rat group was then split into two subgroups of five, with one subgroup fed tonabersat once daily for 14 days from weeks 5 to 7 at a low dose level of 0.28 mg/kg in 0.5 g peanut butter, with the other subgroup fed 0.5 g peanut butter only. All animals were assessed again using ERG and OCT at 8 weeks of age before euthanizing animals and removing the eyes for immunohistochemical analysis. Data groups were randomized prior to the statistical comparison. In summary, normal SD and hyperglycemic rats were analyzed with OCT and ERG at 5 weeks of age; the hyperglycemic rats were then split into two groups and fed the vehicle or tonabersat for 14 days during weeks 6 and 7 of age. At week 8, animals were again assessed with ERG and OCT and tissues collected for immunohistochemical analysis. Four tonabersat-treated rats were, however, left until 3 months of age before final ERG and OCT and tissue collection.
Electroretinogram Recording—The procedure was performed as described previously. Vessey K A, Wilkinson-Berka J L, Fletcher E L. Characterization of retinal function and glial cell response in a mouse model of oxygen-induced retinopathy. J Comp Neurol. 2011; 519:506-27. Essentially, SD rats were dark-adapted overnight for 12-14 hours before the ERG recording. For the dry AMD, the ERG baseline was recorded for all groups before light damage and at time points after the light damage insult (24 hours, 1 week, 2 weeks and 3 months post intense light). For the DR model, ERGs were recorded at 5 weeks of age to compare normal SD and hyperglycemic rat retinal function. Tonabersat treated and vehicle control hyperglycemic rats were assessed again at 8 weeks of age. After dark adaptation, rats were anaesthetized by an intraperitoneal injection of a combination of ketamine (75 mg/kg, Parnell Technologies, New Zealand) and domitor (0.5 mg/kg, Pfizer, New Zealand). A dim red light generated by a light-emitting diode (λmax=650 nm) was used during manipulations of dark-adapted animals. The corneas were maintained hydrated with 1% carboxymethylcellulose sodium (Celluvisc, Allergan, USA) during ERG recording. Right and left eye ERGs were recorded using gold ring electrodes (Roland Consult Stasche & Finger GmbH, Germany). A U-shaped active electrode was kept in contact with the center of the cornea. […] Normal body temperature was maintained to avoid temperature-driven ERG amplitude fluctuation by placing animals on a 37° C. heated pad. Full-field ERG responses were elicited by a twin-flash ([…] stimulus interval) generated from a photographic flash unit (Nikon SB900 flash, Japan), via a Ganzfeld sphere. […]

[1] = 0.28 mg/kg once daily 14 days, week 8, p<0.001
[2] = 0.28 mg/kg once daily 14 days, week 8, p<0.01

CC(=O)c1ccc2c(c1)[C@H](NC(=O)c1ccc(F)c(Cl)c1)[C@H](O)C(C)(C)O2 [tonabersat, N-[(3S,4S)-6-acetyl-3-hydroxy-2,2-dimethyl-3,4-dihydrochromen-4-yl]-3-chloro-4-fluorobenzamide]
mixed ERG a-wave, maximum intensity (0.28 mg/kg once daily 14 days, 8 weeks, untreated −370 V): -630 µV | implicit times (0.28 mg/kg once daily 14 days, week 8): not different | mixed b-wave signals (0.28 mg/kg once daily 14 days, week 8, all intensities, p<0.001): significantly recovered | mixed ERG a-wave vs untreated (0.28 mg/kg once daily 14 days, week 8, intensities 0.1-2.1 cd·s/m2, p<0.001): significantly higher | rod PII amplitude [1]: significantly recovered | rod PIII amplitude [1]: significantly recovered | cone PII amplitude [2]: significantly recovered | summed OPs amplitude [2]: significantly recovered | mixed b-wave, maximum intensity (0.28 mg/kg once daily 14 days, week 8, untreated controls 400 V): 700 µV | retinal function compared to vehicle hyperglycemic rats (0.28 mg/kg oral once daily 14 days (weeks 5 to 7), week 8): significantly recovered

From patent US20220401408A1, “COMPOSITIONS AND METHODS FOR RESCUING RETINAL AND CHOROIDAL STRUCTURE AND FUNCTION” (AUCKLAND UNISERVICES LIMITED, priority 2019, published 2022)
